This test can be described thus: Inhibition of malathion-induced apoptosis in goat testicular germ cells assessed as cell survival at 10 uM (malathion treated control = 41 +/- 6.24%). The format is functional. As to conditions: Capra hircus; read-out: Survival.
Consider `NS(=O)(=O)c1ccc2c(c1)sc1nc(-c3ccccc3)cn12`, for which the viability at 10 µM was 50%.
For `Cc1ccc(-c2cn3c(n2)sc2cc(S(N)(=O)=O)ccc23)cc1`, the viability at 10 µM turned out to be 64%.
Consider `NS(=O)(=O)c1ccc2c(c1)sc1nc(-c3ccc(F)cc3)cn12`, for which the viability at 10 µM came to 43%.
In the case of `NS(=O)(=O)c1ccc2c(c1)sc1nc(-c3ccc(Cl)cc3)cn12` it was 56%.
On to `NS(=O)(=O)c1ccc2c(c1)sc1nc(-c3ccc(Br)cc3)cn12`, for which the viability at 10 µM is 52%.
As for `NS(=O)(=O)c1ccc2c(c1)sc1nc(-c3ccc([N+](=O)[O-])cc3)cn12`, the viability at 10 µM worked out at 39%.
In the case of `NS(=O)(=O)c1ccc2c(c1)sc1nc(-c3cc4ccccc4oc3=O)cn12` it was 46%; in that of `NS(=O)(=O)c1ccc2c(c1)sc1nc(-c3cc4cc(Cl)ccc4oc3=O)cn12`, 61%; in that of `NS(=O)(=O)c1ccc2c(c1)sc1nc(-c3cc4cc(Br)ccc4oc3=O)cn12`, 48%.
As for `CCOC(=O)CC(SP(=S)(OC)OC)C(=O)OCC` (stereo not given) [MALATHION], the viability at 10 µM was 41%.

Source of the values: ChEMBL document CHEMBL2311480, “Inhibitors of apoptosis in testicular germ cells: synthesis and biological evaluation of some novel IBTs bearing sulfonamide moiety” (2013).
